Entries after “also recorded” stand apart in the source; their conditions may differ.
How the values were obtained:
[1] = target: T1, tau-tau binding (truncated core tau unit of the PHF / full-length tau T40) (Homo sapiens, UniProt P10636); assay: Tau-tau binding assay (truncated core tau unit in solid phase, tau in aqueous phase); settings: for Ki: standard competitive inhibition model
T1 construct: the truncated core tau unit terminating at Ala-390 (“a”); made in house; host or cells: E. coli BL21 (DE3), plasmid pRK172
Description: Particularly preferred is the following configuration for tau-tau binding assays (FIG. 10): A tau fragment, preferably a recombinant tau fragment, corresponding to the truncated tau unit of the core PHF is bound to a solid phase, e.g. a conventional ELISA plate, in buffer conditions which have been shown not to favour tau-tau association. […] The solid phase is usually poly(vinyl-chloride), but may be other polymers such as cellulose, polyacrylamide, nylon, polystyrene or polypropylene. The solid supports may be in the form of tubes, beads, discs or micro plates, or any other surfaces suitable for conducting an assay, and which on passive binding of tau protein, exposes the high affinity tau capture site. Following binding, the solid phase-antibody complex is washed in preparation for the test sample.
Next, a truncated unit terminating at Glu-391 was incubated. Only the lafter could be detected as mAb 423 immunoreactivity. […] Therefore plating of the core tau unit for passive binding to solid phase matrix was carried out in this buffer. If desired, a depolymerised tubulin preparation or a preparation of microtubules in the same buffer can be plated for passive binding for determination of tau-tubulin binding. Suitable agents for blocking excess binding sites are milk extract, bovine serum albumin, gelatine, etc. […]
FIG. 8: Tau binding assay configuration in which binding of two truncated units is measured. […]
FIG. 10: Standard configuration for measurement of binding of full-length tau (“t”) to the truncated core tau unit previously bound passively to the solid phase (“a”). […] Binding is detected by an appropriate antibody, which recognises an epitope located near the N-terminus of full-length tau.
(§1) FIG. 20: Selective inhibition of tau-tau-binding by thionine. […] The Ki values were calculated using the Kd values obtained from the corresponding binding studies using full-length tau. […]
The assay is carried out in a 96-well PVC microtitre plate, with solutions added and readings taken with respect to individual wells: […]

NIE-115 cells = assay: pNFH aggregates and neurite incorporation in NIE-115 cells; format: cell-based
Method: (§2) Neuronal cell lines (N2A, NIE-115) were cultured in DMEM containing 2% or 10% foetal calf serum and 5% horse serum on tissue culture plates coated with collagen. These were all grown at 37° C. in an atmosphere containing 5% CO2. Initial immunohistochemical studies of neuronal cell lines prior to transfection led to the identification of cytoplasmic aggregates immunoreactive with mAb 423 forming in the cytoplasm of undifferentiated neuroblastoma cells (N2A cells) and in PC-12 cells after brief treatment with dibutyryl-cAMP (db-cAMP, known to differentiate neuroblastoma cells in tissue culture). […] In the course of differentiation, this endogenous mAb 423 immunoreactivity was seen to shift from the cytoplasm to neurites. Immunoprecipitation of mAb423 immunoreactivity from these cells led to the identification of a species with gel mobility of 230 kDa which was recognised by SMI-31. […] We refer to them as presumptive-NFH aggregates (pNFH).
Rather, pNFH immunoreactivity was normally incorporated into growing neurites during the course of differentiation, although an early perinuclear-arc stage was also seen. NIE cells were transfected as above with the pIF2 vector containing either full-length or truncated tau protein and grown in the presence of thionine. The effects of adding db-cAMP in the presence or absence of thionine were then examined.

[2] = test system: 3T3 cells transfected with truncated tau; assay: Viability of 3T3 cells transfected with truncated tau; format: cell-based, mouse; settings: grown in higher concentrations of thionine
Method: (§3) Mouse fibroblast 3T3 cells were transfected with a eukaryotic expression vector (pIF2) containing full-length and truncated forms of tau protein under constitutive control by a β-globin promotor. This vector contains a neomycin resistance gene as a selectable marker (pSV2neo; Sambrook et al. (1989), loc. cit.; modified by M. N. Neuberger). Cells were cultured in […] (DMEM) containing antimicrobial agents and 10% foetal calf serum at 37° C. in an atmosphere of 5% CO2. They were transfected with plasmid DNA either using a standard calcium phosphate protocol or by lipofection (according to manufacturers protocol; Gibco BRL). Cells which had integrated the plasmid DNA were selected by viability in medium containing Geneticin (0.5 mg/ml; Southern and Berg (1982), J. Mol. Appl. Genet. 1, 327).
The number of viable cell lines transfected with truncated tau increased when the cells were grown in the presence of higher concentrations of thionine.

[3] = test system: tau/MAP2 binding interaction (foetal MAP2C); assay: Tau/MAP2 binding in the standard binding assay; settings: truncated tau/MAP2C and MAP2C/full-length tau configurations
Description: One possible explanation for the lack of MAP2 in PHFs might be that MAP2 in PHFs might be MAP2 is unable to bind to the core tau unit of the PHF because of sequence differences in the repeat regions. This was examined experimentally using the standard binding assay in two configurations: truncated tau in the solid phase with foetal MAP2C in the aqueous phase, and MAP2C in the solid phase with full-length tau in the aqueous phase. […] Thus, aggregation in the tandem-repeat region is not selective for tau, and the inhibitory activity of phenothiazine inhibitors such as thionine is not dependent on sequences unique to tau. The reason why MAP2 is not found in PHFs is at present unknown, but factors may include the contribution of the large N-terminal domain found in the adult form of MAP2, compartment differences within the cell, or other differences in processing of the MAP2 molecules.

[4] = target: tau-tubulin binding (depolymerised tubulin coated, tau incubated) (Homo sapiens, UniProt P10636); assay: Tau-tubulin binding assay; settings: read-out: Ki for inhibition of the tau-tubulin binding interaction in vitro
Method: A method of determining any possible interference, i.e. binding of tau or a derivative thereof to tubulin molecules, comprises contacting a depolymerised tubulin preparation, or preparation of taxol-stabilised microtubules with an agent suspected of being capable of modulating or inhibiting pathological tau-tau association and a tau compound mentioned in above step c) followed by detection of the tau-tubulin binding.
Next, a truncated unit terminating at Glu-391 was incubated. Only the lafter could be detected as mAb 423 immunoreactivity. […] Therefore plating of the core tau unit for passive binding to solid phase matrix was carried out in this buffer. If desired, a depolymerised tubulin preparation or a preparation of microtubules in the same buffer can be plated for passive binding for determination of tau-tubulin binding. Suitable agents for blocking excess binding sites are milk extract, bovine serum albumin, gelatine, etc. […] No binding of full-length tau was seen without prior plating of the core tau unit in the solid phase. When both species were present, binding was seen to depend on concentration of both species. […]
as §1

PC-12 cells = assay: pNFH aggregates and neurite incorporation in PC-12 cells; format: cell-based; settings: for Frequency of cells with pNFH aggregates: after db-cAMP, with thionine
Method: as §2
PC-12 cells were transfected with the pIF2 vector containing either the PHF-core tau fragment truncated at Glu-391 or full-length tau protein. As with 3T3 fibroblasts, no viable cell lines transfected with truncated tau were produced unless cells were grown in thionine following transfection. Once stahilised, transfected cell lines were analysed in the presence or absence of db-cAMP and in the presence and absence of thionine. Two end-points were examined: formation of cytoplasmic pNPH aggregates, and distribution of pNFH immunoreactivity into neurites.

3T3 cells = assay: Toxicity of inhibitors in 3T3 cells; format: cell-based, mouse
Method: as §3
The toxicity of the truncated core tau unit might be reversible in part if the prototype phenothiazine inhibitors could be used to block self-aggregation in vivo. This would be feasible only if the compounds were not intrinsically toxic at concentrations needed to block tau-tau binding. […] In practice, 3T3 cells could be grown several month in the presence of 2 μM thionine.

[5] = test system: 3T3 cells transfected with PIF2::T40; assay: Lipofectin/tau protein transfer into 3T3 cells expressing full-length tau; format: cell-based, mouse; settings: truncated tau transferred via lipofectin, all three concentrations of truncated tau; thionine 1 μM
Method: FIG. 30: Lipofectin/tau protein transfers into 3T3 cells transfected with PIF2::T40. Relative cell survival (normalised to cell counts after Lipofectin treatment without protein) is shown for approximately equimolar concentrations of full-length (T40, 220 nM) and truncated tau (dGAE, 300 nM), without (unshaded) or with shaded) thionine at 1 μM. Truncated tau is more toxic than full-length tau (p=0.02), despite the fact that at equimolar concentrations, the total protein load is 5× greater in the case of full-length tau.
FIGS. 31A and 31B: (FIG. 31A) Reversal of truncated tau toxicity: The toxicity of truncated tau transferred via lipofectin into 3T3 cells expressing full-length tau is concentration dependent. […] (FIG. 31B) Similar experiment in which full-length tau was transferred via lipofectin into 3T3 cells expressing full-length. Both toxicity and thionine effects were much less apparent.

neuronal cell lines = assay: Toxicity for neuronal cell lines; format: cell-based; settings: concentrations up to 2 μM
[6] = test system: 3T3 fibroblast transfected with full-length tau protein; assay: Cytoskeletal distribution of tau in 3T3 fibroblasts transfected with full-length tau; format: cell-based, mouse
Method: as §3
The influence of thionine on the tau-tubulin binding interaction was examined in vivo by culturing 3T3 fibroblast transfected with full-length tau protein in the presence of thionine at a range of concentrations.

[7] = systemic administration; cited from earlier work

T1 sequence (P10636 614-707 limits assumed): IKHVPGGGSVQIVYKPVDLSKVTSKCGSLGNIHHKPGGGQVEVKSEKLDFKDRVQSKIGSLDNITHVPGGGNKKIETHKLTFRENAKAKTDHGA
Sequence of tau-tubulin binding (depolymerised tubulin coated, tau incubated) (P10636 1-441 isoform P10636-8): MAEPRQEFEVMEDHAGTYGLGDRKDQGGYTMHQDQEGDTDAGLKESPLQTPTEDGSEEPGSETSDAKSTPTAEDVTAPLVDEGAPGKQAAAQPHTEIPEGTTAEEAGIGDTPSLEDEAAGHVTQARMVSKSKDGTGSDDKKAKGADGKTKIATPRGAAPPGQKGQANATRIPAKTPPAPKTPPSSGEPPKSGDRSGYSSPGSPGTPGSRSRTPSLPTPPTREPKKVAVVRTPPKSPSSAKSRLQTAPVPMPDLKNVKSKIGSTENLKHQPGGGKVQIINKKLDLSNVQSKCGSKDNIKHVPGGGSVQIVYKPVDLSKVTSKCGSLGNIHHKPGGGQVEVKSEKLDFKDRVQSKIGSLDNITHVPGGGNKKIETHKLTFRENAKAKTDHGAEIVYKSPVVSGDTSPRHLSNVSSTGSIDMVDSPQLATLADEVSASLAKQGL

Compound: POTr: fetal rat tau
- Binding to the core tau unit ([1]; introduced in the aqueous phase): incapable of pathological binding

Compound: thionine
- pNFH-neurite index (NIE-115 cells; NIE-ND1, after db-cAMP, with thionine as printed (0.66 without)): 0.1
- Proportion of cells containing pNFH aggregates (NIE-115 cells; NIE-ND6, transfected with truncated tau, with thionine (44% after withdrawal)): 14%
- Incorporation of transgenic tau protein into the microtubular cytoskeleton (NIE-115 cells; cells transfected with full-length tau): did not interfere
- Proportion of cells containing pNFH aggregates (NIE-115 cells; cells transfected with full-length tau, with thionine (16% after withdrawal)): 7%
- Number of viable cell lines transfected with truncated tau [2]: increased
- Effect on tau/MAP2 binding interaction [3]: blocked
- Ki [4]: 8000 nM
- pNFH-neurite index (PC-12 cells; PC-12 cells transfected with truncated tau, with thionine (0.04 without)): 0.49
- Frequency of cells with pNFH aggregates (PC-12 cells; all transfected cells (49% after withdrawal)): 27%
- Frequency of cells with pNFH aggregates (PC-12 cells; cells transfected with full-length tau (32% after withdrawal)): 16%
- Frequency of cells with pNFH aggregates (PC-12 cells; cells transfected with truncated tau (60% after withdrawal)): 36%
- Inhibition of pNFH aggregates in the cytoplasm (PC-12 cells; untransfected PC-12 cells): Dose-dependent inhibition
- Toxicity in 3T3 cells / fibroblasts (3T3 cells): lowest toxicity; also recorded: does not appear to have substantial intrinsic toxicity
- Concentration at which 3T3 cells could be grown several months (3T3 cells; prolonged culture): 2000 nM
- Ki [1]: 100 nM
- Reversal of truncated tau toxicity [5]: significantly reversed toxicity
- Toxicity for neuronal cell lines (neuronal cell lines): not toxic
- Concentration causing disruption of normal cytoskeletal distribution of tau immunoreactivity [6]: 4 to 8 µM
- Effect on cytoskeletal distribution of tau ([6]; concentration range 0.5-2 μM): no effect

Compound: CN(C)c1ccc2nc3ccc(=[N+](C)C)cc-3sc2c1 [methylene blue]
- CNS penetration [7]: CNS penetration following systemic administration has been described

Compound: acriflavin [reference compound]
- Toxicity in 3T3 cells / fibroblasts (3T3 cells): lowest toxicity
- Ki [1]: 100 nM

Reference: US8278298B2, “Inhibition of tau-tau-association” (Wista Laboratories Ltd., priority 1995, dated 2012)
